Several values for one entry are separate records, joined by “and”; a condition that tells them apart may be missing. Equal entries are not always repeated. Structures can show the parent of a compound that is named as a salt. Where two headings read alike, the source gives them in different places.
How the values were obtained:
[1] = Thermodynamic solubility at pH 7.4; format: physicochemical; conditions: for solubility thermodynamic at 24 h: phosphate buffer, 25 °C, pH 7.4, aqueous buffer, thermodynamic from solid
Description: General protocol for thermodynamic solubility at pH 7.4 and pH 2 are described. • A) Thermodynamic Solubility at pH 7.4
Phosphate buffer at pH 7.4 (25 mM) was prepared as follows:
A solution 25 mM of Na2HPO4.12H2O (for 1 L of water, weight 8.96 g) was prepared
A solution 25 mM de KH2PO4 (for 1 L of water weight 3.4 g) was prepared.
Disodium phosphate solution (812 mL) and potassium phosphate (182 mL) solution were mixed and pH checked to be 7.4.
Equipment • Precision analytical balance Mettler Toledo AT20. • Analytical balance Mettler Toledo PJ300. • Liquid chromatograph Waters Alliance 2695. • Stirrer Thermomixer Control of Eppendorf a 25° C. y 1250 rpm • pHmeter with combined semi-micro electrode.
Around 4 mg of compound in an HPLC vial (by duplicate) was dissolved in 1 mL of buffer solution. After stirring in Thermomixer Comfort system for 24 hours at 25° C., in order to achieve thermodynamic equilibrium, solution was centrifuged at 3000 rpm for 15 minutes.
The resulting upper layer was collected with a glass pipette and transferred to the HPLC vials in order to inject them (10 μL) directly to the HPLC instrument.
Standards were made in methanol to ensure overall compound solubility. Preparation of standard calibrators is illustrated below:
Sol.A: 4 mg in 1 mL methanol (4000 μg/mL)
Sol.B: 0.5 mL Sol.A to 5 mL with methanol (400 μg/mL)
Sol.C: 1 mL Sol.B to 10 mL with methanol (40 μg/mL)
Sol.D: 5 mL […] to 50 mL with methanol (4 μg/mL)
Sol.E: 4 mL Sol.D to 10 mL with methanol (1.6 μg/mL)
Calibration curve was created through 10 μL injection of standards, beginning with the more diluted standard. Blanks were also injected, for checking the absence of contamination.
10 μl of test substance were injected, by duplicate, and the average peak area interpolated in the calibration curve (see Tables Examples below).
Chromatographic Conditions • Column: XBridge C18 (or similar) 2.5 μm 4.6×50 mm • Temperature: 35° C. • Mobile phase: ACN/ammonium bicarbonate 10 mM. • Gradient: 0-3.5 min: from 15% CAN to 95% CAN • 3.5-5 min: 95% ACN • 5-6 min: 95 a 15% ACN • 6-8 min: 15% ACN • Flow: 1.5 mL/min • Detection: around the maximum UV wavelength. • B) Thermodynamic Solubility at pH 2

[2] = Pharmacokinetics after single oral administration to male Wistar rat; format: in vivo
Description: The pharmacokinetics of Example 1 and 2 were tested using the following protocol:
Male Wistar rats weighing 250 to 300 g (±20) supplied by Harlan were used. Water and food was available ad libitum throughout the study.
Administration and Sample Collection
Two rats (R1 and R2) were used in the pharmacokinetic oral studies.
A single dose of tested compound was administered by oral gavage [10 mg/kg as free base (Example 0)] in 0.5% hydroxypropyl methylcellulose (1 mg/ml). From each rat, serial blood samples were collected at 15 and 30 min, 1, 2, 3, 5, 7 and 24 h.
Blood was collected from the saphenous veins into heparinized tubes. Plasma was obtained by blood centrifugation at 4° C. and 2280×g for 10 min and kept at −80° C. until analysis.
Tested compound concentration in plasma samples was determined by least-squares linear regression using a ten-point calibration curve. The calibration curve was prepared in blank plasma from a working solution of 1 mg/ml in DMSO.
Samples were thawed at room temperature on the day of analysis. After plasma protein precipitation of samples and calibration standards with acetonitrile (1:4.3; v/v), the mixture was vortexed and centrifuged (4° C. and 16090×g for 10 min).
Tested compound plasma concentrations were determined by high performance liquid chromatography-triple quadrupole mass spectrometry (HPLC-MS/MS) through the following method:
Column: Atlantis® T3 column (2.1×100 mm, 3 μm) (Waters).
Mobile phase: A: 0.0155% Formic water • B: 0.0155% Formic Acetonitrile
Autosampler wash: Solvent 1:Acetonitrile • Solvent 2: 5% Acetonitrile+95% Water
Standard pharmacokinetic parameters, such as area under the curve (AUC), peak plasma concentration (Cmax), time to peak concentration (tmax), oral bioavailability (F), total plasma clearance (Cl), volume of distribution at steady-state (Vss), mean residence time (MRT) and terminal half-life (t1/2), were determined by non-compartmental analysis of the plasma concentration-time curves (Phoenix v. 6.2.1.51, Pharsight, C A).

[3] = mean of 2 rats, 10 mg/kg oral, hydrochloride, 10 mg/kg

For `CC(=O)N1CCN(CCOCc2ccn(-c3ccc(F)c(F)c3)n2)CC1` [Example 1, hydrochloride], which Conc. ([1]; pH 7.4, single HPLC injections of duplicate vials, hydrochloride) is on record?
Its Conc. is 3928 µg/mL and 3817.1 µg/mL and 4301.5 µg/mL and 4345.3 µg/mL.

And the solubility thermodynamic at 24 h ([1]; pH 7.4, mean of 4 injections, read-out: Conc. Mean)?
Its solubility thermodynamic at 24 h is 4100 µg/mL.

And the solubility thermodynamic at 24 h ([1]; pH=7.4, 24 hours at 25° C., completely dissolved, read-out: thermodynamic solubility)?
The solubility thermodynamic at 24 h was greater than 4000 µg/mL.

What about the F ([2]; animal 1, 10 mg/kg oral, mean AUC after i.v. administration used for calculation, hydrochloride) of the same compound?
The F was 66%.

What about the F ([2]; animal 2, 10 mg/kg oral, mean AUC after i.v. administration used for calculation, hydrochloride) of the same compound?
Its F is 53%.

What about the Vd ([2]; male, Wistar, plasma, rat, total body water volume 0.6 l/kg, read-out: volume of distribution) of the same compound?
Its Vd is 1.2 L/kg.

And the bioavailability ([2]; male, Wistar, rat, plasma, oral, 10 mg/kg, mean of 2 rats, 10 mg/kg oral, mean AUC after i.v. administration used for calculation, read-out: F (oral bioavailability))?
The bioavailability was 60%.

And the AUC ([2]; male, Wistar, rat, plasma, po, 10 mg/kg, animal 1, 10 mg/kg oral, read-out: AUC)?
Its AUC is 2950 ng·h/mL.

And the Cmax ([2]; male, Wistar, rat, plasma, po, 10 mg/kg, animal 1, 10 mg/kg oral, read-out: Cmax)?
Its Cmax is 1310 ng/mL.

And the half-life ([2]; male, Wistar, rat, plasma, po, 10 mg/kg, animal 1, 10 mg/kg oral, read-out: t1/2 (converted))?
The half-life was 54 min.

And the tmax ([2]; male, Wistar, rat, plasma, po, 10 mg/kg, animal 1, 10 mg/kg oral, read-out: tmax)?
Its tmax is 15 min.

And the AUC ([2]; male, Wistar, rat, plasma, po, 10 mg/kg, animal 2, 10 mg/kg oral, read-out: AUC)?
The AUC was 2340 ng·h/mL.

And the Cmax ([2]; male, Wistar, rat, plasma, po, 10 mg/kg, animal 2, 10 mg/kg oral, read-out: Cmax)?
The Cmax was 1050 ng/mL.

What about the half-life ([2]; male, Wistar, rat, plasma, po, 10 mg/kg, animal 2, 10 mg/kg oral, read-out: t1/2 (converted)) of the same compound?
Its half-life is 54 min.

What about the tmax ([2]; male, Wistar, rat, plasma, po, 10 mg/kg, animal 2, 10 mg/kg oral, read-out: tmax) of the same compound?
Its tmax is 60 min.

And the AUC ([2]; male, Wistar, rat, plasma, po, 10 mg/kg, mean of 2 rats, 10 mg/kg oral, read-out: AUC)?
The AUC was roughly 2600 ng·h/mL.

What about the Cmax ([2]; male, Wistar, rat, plasma, po, 10 mg/kg, mean of 2 rats, 10 mg/kg oral, read-out: Cmax (peak plasma concentration)) of the same compound?
The Cmax was roughly 1000 ng/mL.

What about the half-life ([2]; male, Wistar, rat, plasma, po, 10 mg/kg, mean of 2 rats, 10 mg/kg oral, read-out: t1/2 (terminal half-life)) of the same compound?
Its half-life is less than 60 min.

What about the tmax ([2]; male, Wistar, rat, plasma, po, 10 mg/kg, mean of 2 rats, 10 mg/kg oral, read-out: tmax) of the same compound?
Its tmax is 36 min.

What about the concentration at 0.5 h ([2]; male, Wistar, rat, plasma, po, 10 mg/kg, rat R1, 0.5 h, 10 mg/kg oral) of the same compound?
The concentration at 0.5 h was 1300 ng/mL.

And the concentration at 1 h ([2]; male, Wistar, rat, plasma, po, 10 mg/kg, rat R1, 1 h, 10 mg/kg oral)?
Its concentration at 1 h is 1070 ng/mL.

What about the concentration at 5 h ([2]; male, Wistar, rat, plasma, po, 10 mg/kg, rat R1, 5 h, 10 mg/kg oral) of the same compound?
Its concentration at 5 h is 49.6 ng/mL.

And the concentration at 0.5 h ([2]; male, Wistar, rat, plasma, po, 10 mg/kg, rat R2, 0.5 h, 10 mg/kg oral)?
The concentration at 0.5 h was 742 ng/mL.

What about the concentration at 1 h ([2]; male, Wistar, rat, plasma, po, 10 mg/kg, rat R2, 1 h, 10 mg/kg oral) of the same compound?
The concentration at 1 h was 1050 ng/mL.

And the concentration at 5 h ([2]; male, Wistar, rat, plasma, po, 10 mg/kg, rat R2, 5 h, 10 mg/kg oral)?
Its concentration at 5 h is 46.9 ng/mL.

What about the concentration at 7 h ([2]; male, Wistar, rat, plasma, po, 10 mg/kg, rat R2, 7 h, 10 mg/kg oral) of the same compound?
Its concentration at 7 h is 11.5 ng/mL.

And the AUC [2, 3]?
Its AUC is 2645 ng·h/mL.

What about the “t1/2 (terminal half-life)” value [2, 3] of the same compound?
The value was 54 min.

And the tmax [2, 3]?
The tmax was 37.8 min.

What about the plasma clearance ([2]; rat) of the same compound?
Its plasma clearance is 70 % liver blood flow.

What about the Plasma concentration ([2]; rat R1, 2 h, 10 mg/kg oral, hydrochloride, 10 mg/kg) of the same compound?
Its Plasma concentration is 722.8 ng/mL.

What about the Plasma concentration ([2]; rat R1, 3 h, 10 mg/kg oral, hydrochloride, 10 mg/kg) of the same compound?
Its Plasma concentration is 323.1 ng/mL.

And the Plasma concentration ([2]; rat R1, 7 h, 10 mg/kg oral, hydrochloride, 10 mg/kg)?
The Plasma concentration was 12.8 ng/mL.

What about the Plasma concentration ([2]; rat R1, 24 h, 10 mg/kg oral, LLOQ 2 ng/ml) of the same compound?
Its Plasma concentration is “<lloq”.

What about the Plasma concentration ([2]; rat R2, 2 h, 10 mg/kg oral, hydrochloride, 10 mg/kg) of the same compound?
Its Plasma concentration is 673.9 ng/mL.

What about the Plasma concentration ([2]; rat R2, 3 h, 10 mg/kg oral, hydrochloride, 10 mg/kg) of the same compound?
The Plasma concentration was 233.1 ng/mL.

And the Plasma concentration ([2]; rat R2, 24 h, 10 mg/kg oral, LLOQ 2 ng/ml)?
The Plasma concentration was “<lloq”.
